Assays:
murine Bcrp1 = molecular target: T1, murine Bcrp1 (Mus musculus, UniProt Q7TMS5); experiment: Transport of Compound I across MDCKII-Bcrp1 monolayers; type: in vitro ADME
T1 construct: expressed in transfected cells; host or cells: MDCKII (Madin-Darby canine kidney strain II) cells, stably transfected
T1 sequence (Q7TMS5 1-657): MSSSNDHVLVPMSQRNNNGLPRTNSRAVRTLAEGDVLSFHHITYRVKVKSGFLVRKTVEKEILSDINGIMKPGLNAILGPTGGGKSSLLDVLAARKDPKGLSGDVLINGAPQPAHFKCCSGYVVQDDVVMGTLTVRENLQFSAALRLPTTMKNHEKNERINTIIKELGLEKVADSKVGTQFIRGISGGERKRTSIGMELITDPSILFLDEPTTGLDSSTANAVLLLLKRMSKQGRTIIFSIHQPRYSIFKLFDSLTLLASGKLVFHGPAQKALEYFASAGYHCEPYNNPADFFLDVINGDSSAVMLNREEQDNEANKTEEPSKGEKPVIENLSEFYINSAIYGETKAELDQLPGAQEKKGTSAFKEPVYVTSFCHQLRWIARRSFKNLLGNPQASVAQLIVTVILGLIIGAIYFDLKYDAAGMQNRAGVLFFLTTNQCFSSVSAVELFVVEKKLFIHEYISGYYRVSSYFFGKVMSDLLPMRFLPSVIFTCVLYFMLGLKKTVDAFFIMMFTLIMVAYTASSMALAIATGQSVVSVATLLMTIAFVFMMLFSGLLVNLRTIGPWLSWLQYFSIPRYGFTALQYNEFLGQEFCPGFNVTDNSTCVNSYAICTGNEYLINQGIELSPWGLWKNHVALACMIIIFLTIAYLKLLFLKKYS
Procedure: Transport across MDCKII monolayers. […] Animals.
Transport of Compound I across MDCKII monolayers. […] To exclude any contribution of P-gp (12), the P-gp inhibitor zosuquidar (5 μM) is added (18).

Bcrp1 = molecular target: T2, Bcrp1 (Mus musculus, UniProt Q7TMS5); experiment: Effect of pantoprazole and elacridar on Bcrp1-mediated transport of Compound I in MDCKII transfected cells; type: in vitro ADME, murine; details: 1 μM Compound I, zosuquidar 5 μM added for pantoprazole, data not shown
T2 construct: expressed in transfected cells; host or cells: MDCKII (Madin-Darby canine kidney strain II) cells, stably transfected
T2 sequence (Q7TMS5 1-657): T1 sequence (Q7TMS5 1-657)
Procedure: Transport across MDCKII monolayers. The MDCKII (Madin-Darby canine kidney strain II) cells are cultured in Dulbecco's Modified Eagle's Medium supplemented with 10% fetal calf serum and 100 units penicillin/streptomycin per ml. Cells are grown at 37° C. with 5% CO2 under humidifying conditions. […] Animals. […] Mice are housed and handled according to institutional guidelines complying with Dutch legislation.
In the experiments in which the effect of pantoprazole is studied, the P-gp inhibitor zosuquidar (5 μM) is added to exclude any contribution of P-gp.

P-gp = details: single dose of elacridar; approximately; cited from earlier work

Structure (SMILES)	net active transport of Compound I by Bcrp1 (murine Bcrp1; 1 and 10 μM Compound I, MDCKII-Bcrp1 and parental cells, P-gp inhibitor zosuquidar 5 μM added)	concentration above which Bcrp1 transport of Compound I is saturable (murine Bcrp1; MDCKII-Bcrp1, zosuquidar 5 μM added)	effect on Bcrp1-mediated transport of Compound I (Bcrp1)	P-gp inhibition (P-gp)
Cc1ccc(NC(=O)c2ccc(CN3CCN(C)CC3)cc2)cc1Nc1nccc(-c2cccnc2)n1 [Compound I]	approximately 20 % per h	above 10 μM		
COc1cc2c(cc1OC)CN(CCc1ccc(NC(=O)c3cccc4c(=O)c5cccc(OC)c5[nH]c34)cc1)CC2 [elacridar]			inhibit	70-80%

Source: patent US20080312250A1, “Combination Comprising a Bcrp Inhibitor and 4- (4-Methylpiperazin-1-Ylmethyl)-N-[4-Methyl-3- (4-Pyridin-3-Yl) Pyrimidin-2-Ylamino) Phenyl] -Benzamide” (THE NETHERLANDS CANCER INSTITUTE, priority 2005, published 2008)
